Each structure is given as a SMILES string.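 Five concentrations, 48 hours, 96-well plates. Here, GI50 denotes the concentration required for 50% inhibition of growth.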 Active and inactive are the calls of the source. Rule as the data show it: active = GI50 up to about 1.1 µM and inactive = higher.

Common to all, as to assay: NCI tumour cell line growth inhibition, 48 h
The subject of assay [1] is CAKI-1.
Assay [2] concerns HCC 2998.
Assay [3] deals with HCT-116.
Assay [4] concerns HCT-15.
For assay [5], the system named is HL-60.
The subject of assay [6] is HOP-92.
Assay [7] concerns K562.
In assay [8] the test system is KM12.
Assay [9] relates to MOLT-4.
Assay [10] relates to NCI-H23.
Assay [11] relates to NCI-H460.
For assay [12], the system named is OVCAR-5.
Assay [13] concerns SF-268.
Assay [14] deals with SN12C.
For assay [15], the system named is SW-620.
Assay [16] relates to UACC-257.
Assay [17] relates to UACC-62.
Assay [18] relates to SNB-19.
Assay [19] has as its system RPMI-8226.

For the compound `COc1ccc(Nc2nc3ccc(C(F)(F)F)cc3nc2-c2ccccc2)cc1OC`, the GI50 in assay [1] is 60.4 µM (inactive); in assay [2], 14.6 µM (inactive); in assay [3], 27.4 µM (inactive); in assay [4], 15.9 µM; in assay [5] it was 36.1 µM (inactive); in assay [6], 1.08 µM (active). The GI50 in [7] was 31.4 µM (inactive); in [8], 21.5 µM (inactive); in assay [9], 22 µM (inactive); in assay [10], 32.4 µM (inactive); in assay [11], 16.4 µM (inactive); in assay [12], 52.7 µM (inactive). Moreover, the GI50 in assay [13] is 92.7 µM (inactive); in assay [14] it was 38 µM (inactive); in assay [15], 68.4 µM (inactive); in assay [16], 38.5 µM (inactive); in [17], 66.8 µM (inactive).
On to `O=C1C2CC=CCC2C(=O)C12CCc1ccccc12` (stereo not drawn), for which the GI50 in assay [1] was > 100 µM (inactive); in assay [2] it was > 100 µM (inactive); in assay [4] it was greater than 100 µM; in [5] it was 74.6 µM (inactive); in assay [6] it was > 100 µM (inactive); in assay [7] it was > 100 µM (inactive). Further, the GI50 in assay [10], in assay [11], in assay [13], in [14], in assay [15] and in assay [17] was > 100 µM (inactive) each time.
In the case of `CC(O)CNC(=O)C(C)Oc1ccc(OCC2CCCCC2)cc1` (stereo not drawn), the GI50 in assay [2] is > 100 µM (inactive); in [3], > 100 µM (inactive); in [4] it was greater than 100 µM; in [5] it was > 100 µM (inactive); in assay [7], > 100 µM (inactive); in assay [8], > 100 µM (inactive). In addition, the GI50 in assay [9] was > 100 µM (inactive); in assay [11], > 100 µM (inactive); in assay [13], > 100 µM (inactive); in [14], > 100 µM (inactive); in assay [18], > 100 µM (inactive); in assay [16] it was 73.6 µM (inactive). Besides, the GI50 in assay [17] was > 100 µM (inactive).
Regarding `COc1ccc(CNc2cnc3ccc(N)cc3n2)cc1`, the GI50 in [1] is > 100 µM (inactive); in assay [2] it was > 100 µM (inactive); in assay [3] it was 0.0622 µM (active); in [4], greater than 100 µM; in [5], > 100 µM (inactive); in assay [7], > 100 µM (inactive). The GI50 in assay [8] was > 100 µM (inactive); in [9] it was 24.7 µM (inactive); in [10], > 100 µM (inactive); in [11], > 100 µM (inactive); in assay [12], > 100 µM (inactive); in assay [19], 81.8 µM (inactive). Further, the GI50 in [13], in assay [14], in [18], in [15] and in [16] was > 100 µM (inactive) each time.
Turning to `OCCN(/N=C\c1ccc2ccccc2c1)C1=NCCN1`, the GI50 was 16.3 µM (inactive) in [2]; 26.7 µM (inactive) in [3]; 30.5 µM in [4]; 19 µM (inactive) in assay [5]; 16 µM (inactive) in [6]; 14.4 µM (inactive) in [7]. Also, the GI50 in assay [8] was 38.2 µM (inactive); in assay [9], 18.2 µM (inactive); in assay [10], 27.7 µM (inactive); in [11] it was 29.4 µM (inactive); in assay [12], 24.2 µM (inactive); in assay [19], 28.8 µM (inactive). Moreover, the GI50 in [13] was 35.1 µM (inactive); in assay [14], 25.3 µM (inactive); in [18], 32.4 µM (inactive); in assay [15] it was 21.1 µM (inactive); in assay [17], 21.3 µM (inactive).
With `Cn1c(=O)c2c(nc3n2CCC(=O)N3)n(C)c1=O`, the GI50 in assay [1], in assay [5], in assay [6], in [7], in assay [8] and in assay [9] was > 100 µM (inactive) in each case. Moreover, the GI50 in [10], in [11], in [12], in assay [13], in assay [14] and in assay [18] was > 100 µM (inactive) each time. Moreover, the GI50 in assay [15], in assay [16] and in [17] was > 100 µM (inactive) each time.
Regarding `CN(C)CCNC(=O)c1cccc2[nH]c(-c3cccnc3)nc12`, the GI50 in assay [1] is 27.6 µM (inactive); in assay [2], 17.1 µM (inactive); in assay [3] it was 9.55 µM (inactive); in assay [4], 24.8 µM; in assay [5], 31.5 µM (inactive); in assay [6], 22.6 µM (inactive). Also, the GI50 in [7] was 27.9 µM (inactive); in [8] it was 36.5 µM (inactive); in [9], 25.8 µM (inactive); in assay [10], 18.8 µM (inactive); in assay [11], 19.3 µM (inactive); in assay [12], 28.1 µM (inactive). For the same compound, the GI50 is 27.9 µM (inactive) in [13]; 18.2 µM (inactive) in assay [14]; 28.1 µM (inactive) in [18]; 12.9 µM (inactive) in assay [15]; 18.5 µM (inactive) in assay [16]; 18.9 µM (inactive) in [17].
In the case of `Cc1nc2nnnn2c2c1C(=O)Nc1ccccc1N2`, the GI50 in [2], in [3], in assay [5], in assay [6], in assay [7] and in assay [8] was > 100 µM (inactive) each time. Also, the GI50 in assay [9] was 43.2 µM (inactive); in assay [10], > 100 µM (inactive); in assay [11] it was 28.4 µM (inactive); in [19] it was > 100 µM (inactive); in assay [13], > 100 µM (inactive); in [14], > 100 µM (inactive). Moreover, the GI50 in assay [18], in assay [15], in [16] and in assay [17] was > 100 µM (inactive) each time.
`O=C(Cc1nc2ccccc2s1)NC12CC3CC(CC(C3)C1)C2`: the GI50 was > 100 µM (inactive) in assay [1]; > 100 µM (inactive) in assay [2]; > 100 µM (inactive) in assay [3]; greater than 100 µM in assay [4]; > 100 µM (inactive) in assay [5]; > 100 µM (inactive) in assay [6]. Also, the GI50 in assay [7], in [8], in [9], in assay [10], in assay [11] and in assay [13] was > 100 µM (inactive) in each case. In addition, the GI50 in assay [14], in assay [18], in assay [15], in [16] and in [17] was > 100 µM (inactive) throughout.
For `NC1(CCCCCCCCCCC(=O)O)CNCCNCCNCCNC1`, the GI50 was 84.1 µM (inactive) in assay [1]; 15.2 µM (inactive) in assay [2]; 28.1 µM (inactive) in [3]; 15.9 µM (inactive) in assay [5]; 33.8 µM (inactive) in [7]; 48.9 µM (inactive) in [8]. The GI50 in assay [9] was 30.2 µM (inactive); in assay [10] it was > 100 µM (inactive); in [11] it was 26.6 µM (inactive); in assay [12], 16 µM (inactive); in assay [19], 37.4 µM (inactive); in assay [13], > 100 µM (inactive). The GI50 in assay [14] is 23.8 µM (inactive); in assay [18], 18.5 µM (inactive); in assay [15], 44.8 µM (inactive); in [16], > 100 µM (inactive); in assay [17], 47.6 µM (inactive).
Turning to `OCC(O)C(O)C(O)c1nn(-c2ccc(F)cc2)c2nc3cc(Cl)c(Cl)cc3nc12` (stereo not drawn), the GI50 is 21.7 µM (inactive) in [1]; 29.4 µM (inactive) in assay [2]; 24.5 µM (inactive) in [3]; 53.3 µM in assay [4]; > 100 µM (inactive) in assay [5]; 17.6 µM (inactive) in [7]. Besides, the GI50 in [8] was 23.3 µM (inactive); in [9], 18.8 µM (inactive); in assay [10], 18.5 µM (inactive); in assay [11] it was 25.5 µM (inactive); in assay [12] it was > 100 µM (inactive); in assay [19], 36.4 µM (inactive). The GI50 in [13] is 16.9 µM (inactive); in assay [14], 22.1 µM (inactive); in assay [18] it was 18.3 µM (inactive); in assay [15], 26.4 µM (inactive); in [16], 21.4 µM (inactive); in assay [17], 16.9 µM (inactive).
With `OCC1OC2c3ccccc3COC2C1OCc1ccccc1` (stereo not drawn), the GI50 in assay [1] was 96.8 µM (inactive); in assay [2] it was > 100 µM (inactive); in assay [3] it was > 100 µM (inactive); in [4], greater than 100 µM; in [7], 96.4 µM (inactive); in [8], > 100 µM (inactive). The GI50 in assay [9] was > 100 µM (inactive); in assay [10] it was 91.6 µM (inactive); in assay [11] it was > 100 µM (inactive); in [12], > 100 µM (inactive); in [19], > 100 µM (inactive); in assay [14] it was > 100 µM (inactive). Also, the GI50 in [18] was > 100 µM (inactive); in assay [15], > 100 µM (inactive); in assay [16], 37 µM (inactive); in assay [17], 69.5 µM (inactive).

The record behind these values is ChEMBL document CHEMBL1201862, “PubChem BioAssay data set” (2004).
